As usually defined, the IC50 is the midpoint of a concentration-inhibition curve.

The structures appear in SMILES notation. Bridge positions count the residues as written; N and C are the ends. Square brackets hold non-standard residues; d marks the D form. Peptide text beside a SMILES is read from it. * marks the point of attachment. ξ: configuration not given here. Phe(4-CH2CH2COOH) = N[C@@H](Cc1ccc(CCC(=O)O)cc1)C(=O)O; Phe(3,4,5-F3) = N[C@@H](Cc1cc(F)c(F)c(F)c1)C(=O)O; Phe(4-CONH2) = NC(=O)c1ccc(C[C@H](N)C(=O)O)cc1; Phe(4-COOH) = N[C@@H](Cc1ccc(C(=O)O)cc1)C(=O)O; Bip = N[C@@H](Cc1ccc(-c2ccccc2)cc1)C(=O)O; Phe(3-Me) = Cc1cccc(C[C@H](N)C(=O)O)c1; NH(CH2)12COOH = O=C(O)CCCCCCCCCCCCN*; Val(3-OH) = CC(C)(O)[C@H](N)C(=O)O; 4Pal = N[C@@H](Cc1ccncc1)C(=O)O; Cha = N[C@@H](CC1CCCCC1)C(=O)O; Cit = NC(=O)NCCC[C@H](N)C(=O)O; Thr(3ξ) = CC(O)[C@H](N)C(=O)O; dDab = NCC[C@@H](N)C(=O)O; Carboxymethyl = O=C(O)C*; Orn = NCCC[C@H](N)C(=O)O; Pra = C#CC[C@H](N)C(=O)O; Aun = NCCCCCCCCCCC(=O)O; Dab = NCC[C@H](N)C(=O)O; Dap = NC[C@H](N)C(=O)O; AEEA = NCCOCCOCC(=O)O

T1 sequence (Q15116 25-288): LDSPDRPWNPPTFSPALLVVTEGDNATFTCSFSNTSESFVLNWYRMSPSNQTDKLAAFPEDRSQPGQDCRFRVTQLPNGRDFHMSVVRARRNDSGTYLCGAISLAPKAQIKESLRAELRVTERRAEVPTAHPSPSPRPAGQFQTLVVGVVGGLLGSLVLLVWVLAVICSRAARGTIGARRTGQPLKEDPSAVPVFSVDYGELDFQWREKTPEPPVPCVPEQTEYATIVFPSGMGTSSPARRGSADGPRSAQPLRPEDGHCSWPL

The assay concerns the target T1, PD-1/PD-L1 interaction (PE-labeled human PD-L1-Ig binding to Jurkat cell line over-expressing human PD-1) (Homo sapiens, UniProt Q15116).
T1 construct: expressed in transfected cells; host or cells: Jurkat
Briefly: Jurkat-PD-1 Cell Binding High-Content Screening Assay (CBA). In kind it is cell-based. Particulars: Jurkat cell line over-expressing human PD-1; PE-labeled PD-L1-Ig 20 nM final; read-out: Jurkat hPD1-PDL1 IC50. In a few lines: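 First, compound is added to PD-1-expressing Jurkat cells in serum-containing DMEM and left 2 h at 37° C. Next, PE-conjugated PD-L1-Ig is introduced at 20 nM final concentration for 1 hour. Finally, cells are fixed in 4% paraformaldehyde with Hoechst 33342, washed and imaged.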
Take `Cc1cccc(C[C@@H]2NC(=O)[C@H](CC(=O)O)NC(=O)[C@H](Cc3ccc(CCC(=O)O)cc3)NC(=O)[C@H](CN)NC(=O)CSC[C@@H](C(=O)N[C@@H](CCCN)C(=O)N[C@@H](CO)C(=O)NCCCCCCCCCCC(=O)O)NC(=O)[C@H]([C@@H](C)O)NC(=O)[C@H](C(C)C)NC(=O)[C@H](CC3CCCCC3)NC(=O)[C@H](CCN)NC(=O)[C@@H](CC(C)C)NC(=O)[C@H](CCCN)NC(=O)[C@H](CCCNC(N)=O)NC(=O)[C@H](Cc3ccc(-c4ccccc4)cc3)NC(=O)[C@H](C(C)C)NC2=O)c1` [Compound 2812] ({CH2CO}-[Dap][Phe(4-CH2CH2COOH)]D[Phe(3-Me)]V[Bip][Cit][Orn][dL][Dab][Cha]VTC[Orn]S[Aun]-OH; thioether N-14): the IC50 was found to be 24 nM. Turning to `CC(C)C[C@H]1NC(=O)[C@H](CCCN)NC(=O)[C@H](Cc2ccc(O)cc2)NC(=O)[C@H](Cc2ccc(-c3ccccc3)cc2)NC(=O)[C@H](C(C)C)NC(=O)[C@H](Cc2c[nH]c3ccccc23)NC(=O)[C@H](CC(=O)O)NC(=O)[C@H](Cc2ccc(C(=O)O)cc2)NC(=O)[C@H](CC(N)=O)NC(=O)CSC[C@@H](C(=O)N[C@@H](CCN)C(=O)NCCCCCCCCCCC(=O)O)NC(=O)[C@H](CCC(=O)O)NC(=O)[C@H](C(C)C)NC(=O)[C@H](CC2CCCCC2)NC(=O)[C@H](CCN)NC1=O` [Compound 3392] ({CH2CO}-N[Phe(4-COOH)]DWV[Bip]Y[Orn][dL][Dab][Cha]VEC[Dab][Aun]-OH; thioether N-14), the IC50 was found to be 13.3 nM. The figure for `Cc1cccc(C[C@@H]2NC(=O)[C@H](CC(=O)O)NC(=O)[C@H](Cc3ccc(OCC(=O)O)cc3)NC(=O)[C@H](CCCNC(=N)N)NC(=O)CSC[C@@H](C(=O)N[C@@H](CCCCN)C(=O)NCCCCCCCCCCC(=O)O)NC(=O)[C@H](CCCN)NC(=O)[C@H](C(C)C)NC(=O)[C@H](CC3CCCCC3)NC(=O)[C@H](CCN)NC(=O)[C@@H](CC(C)C)NC(=O)[C@H](CCCN)NC(=O)[C@H](CCCNC(N)=O)NC(=O)[C@H](Cc3ccc(-c4ccccc4)cc3)NC(=O)[C@H](C(C)C)NC2=O)c1` [Compound 3474] ({CH2CO}-RY(Carboxymethyl)D[Phe(3-Me)]V[Bip][Cit][Orn][dL][Dab][Cha]V[Orn]CK[Aun]-OH; thioether N-14) is 11.8 nM; for `Cc1cccc(C[C@@H]2NC(=O)[C@H](CC(=O)O)NC(=O)[C@H](Cc3ccc(OCC(=O)O)cc3)NC(=O)[C@H](CN)NC(=O)CSC[C@@H](C(=O)N[C@@H](C)C(=O)N[C@@H](CC(=O)O)C(=O)NCCOCCOCC(=O)N[C@@H](CC(=O)O)C(=O)NCCOCCOCC(=O)NCCCCCCCCCCC(=O)O)NC(=O)[C@H]([C@@H](C)O)NC(=O)[C@H](C(C)C)NC(=O)[C@H](CC3CCCCC3)NC(=O)[C@H](CCN)NC(=O)[C@@H](CC(C)C)NC(=O)[C@H](CCCN)NC(=O)[C@H](CCCNC(N)=O)NC(=O)[C@H](Cc3ccc(-c4ccccc4)cc3)NC(=O)[C@H](C(C)C)NC2=O)c1` [Compound 1013] ({CH2CO}-[Dap]Y(Carboxymethyl)D[Phe(3-Me)]V[Bip][Cit][Orn][dL][Dab][Cha]VTCAD[AEEA]D[AEEA][Aun]-OH; thioether N-14) it is 11.9 nM.

As for `Cc1cccc(C[C@@H]2NC(=O)[C@H](CC(=O)O)NC(=O)[C@H](Cc3ccc(OCC(=O)O)cc3)NC(=O)[C@@H](CCN)NC(=O)CSC[C@@H](C(=O)N[C@@H](CCN)C(=O)NCCCCCCCCCCC(=O)O)NC(=O)[C@H](Cc3cnc[nH]3)NC(=O)[C@H](C(C)(C)O)NC(=O)[C@H](CC3CCCCC3)NC(=O)[C@H](CCN)NC(=O)[C@@H](CC(C)C)NC(=O)[C@H](CCCN)NC(=O)[C@H](Cc3ccc(C(=O)O)cc3)NC(=O)[C@H](Cc3ccc(-c4ccccc4)cc3)NC(=O)[C@H](Cc3ccc(C(=O)O)cc3)NC2=O)c1` [Compound 3770] ({CH2CO}-[dDab]Y(Carboxymethyl)D[Phe(3-Me)][Phe(4-COOH)][Bip][Phe(4-COOH)][Orn][dL][Dab][Cha][Val(3-OH)]HC[Dab][Aun]-OH; thioether N-14), the IC50 was 239 nM.

Take `Cc1cccc(C[C@@H]2NC(=O)[C@H](CC(=O)O)NC(=O)[C@H](Cc3ccc(OCC(=O)O)cc3)NC(=O)[C@H](CN)NC(=O)CSC[C@@H](C(=O)N[C@@H](CCCCN)C(=O)NCCCCCCCCCCC(=O)O)NC(=O)[C@H](CN)NC(=O)[C@H](C(C)C)NC(=O)[C@H](CC3CCCCC3)NC(=O)[C@H](CCN)NC(=O)[C@@H](CC(C)C)NC(=O)[C@H](CCCN)NC(=O)[C@H](CCCNC(N)=O)NC(=O)[C@H](Cc3ccc(-c4ccccc4)cc3)NC(=O)[C@H](C(C)C)NC2=O)c1` [Compound 2637] ({CH2CO}-[Dap]Y(Carboxymethyl)D[Phe(3-Me)]V[Bip][Cit][Orn][dL][Dab][Cha]V[Dap]CK[Aun]-OH; thioether N-14): the IC50 is 15.5 nM. As for `Cc1cccc(C[C@@H]2NC(=O)[C@H](CC(=O)O)NC(=O)[C@H](Cc3ccc(OCC(=O)O)cc3)NC(=O)[C@H](Cc3cc(F)c(F)c(F)c3)NC(=O)CSC[C@@H](C(=O)N[C@@H](CCN)C(=O)NCCCCCCCCCCC(=O)O)NC(=O)[C@H](CO)NC(=O)[C@H](C(C)(C)O)NC(=O)[C@H](CC3CCCCC3)NC(=O)[C@H](CCN)NC(=O)[C@@H](CC(C)C)NC(=O)[C@H](CCCN)NC(=O)[C@H](Cc3ccc(OCC(=O)O)cc3)NC(=O)[C@H](Cc3ccc(-c4ccccc4)cc3)NC(=O)[C@H](Cc3ccc(OCC(=O)O)cc3)NC2=O)c1` [Compound 2199] ({CH2CO}-[Phe(3,4,5-F3)]Y(Carboxymethyl)D[Phe(3-Me)]Y(Carboxymethyl)[Bip]Y(Carboxymethyl)[Orn][dL][Dab][Cha][Val(3-OH)]SC[Dab][Aun]-OH; thioether N-14), the figure is 50 nM; as for `Cc1cccc(C[C@@H]2NC(=O)[C@H](CC(=O)O)NC(=O)[C@H](Cc3ccc(OCC(=O)O)cc3)NC(=O)[C@H](C(C)O)NC(=O)CSC[C@@H](C(=O)N[C@@H](CCN)C(=O)NCCCCCCCCCCC(=O)O)NC(=O)[C@H](CO)NC(=O)[C@H](Cc3cnc[nH]3)NC(=O)[C@H](CC3CCCCC3)NC(=O)[C@H](CCN)NC(=O)[C@@H](CC(C)C)NC(=O)[C@H](CCCN)NC(=O)[C@H](Cc3ccc(OCC(=O)O)cc3)NC(=O)[C@H](Cc3ccc(-c4ccccc4)cc3)NC(=O)[C@H](Cc3ccc(C(=O)O)cc3)NC2=O)c1` (stereo partly drawn) [Compound 3704] ({CH2CO}-[Thr(3ξ)]Y(Carboxymethyl)D[Phe(3-Me)][Phe(4-COOH)][Bip]Y(Carboxymethyl)[Orn][dL][Dab][Cha]HSC[Dab][Aun]-OH; thioether N-14), 21.9 nM. As for `Cc1cccc(C[C@@H]2NC(=O)[C@H](CC(=O)O)NC(=O)[C@H](Cc3ccc(OCC(=O)O)cc3)NC(=O)[C@H](Cc3ccc(C(N)=O)cc3)NC(=O)CSC[C@@H](C(=O)N[C@@H](CCN)C(=O)NCCCCCCCCCCC(=O)O)NC(=O)[C@H]([C@@H](C)O)NC(=O)[C@H](C(C)C)NC(=O)[C@H](CC3CCCCC3)NC(=O)[C@H](CCN)NC(=O)[C@@H](CC(C)C)NC(=O)[C@H](CCCN)NC(=O)[C@H](Cc3ccc(OCC(=O)O)cc3)NC(=O)[C@H](Cc3ccc(-c4ccccc4)cc3)NC(=O)[C@H](Cc3ccc(OCC(=O)O)cc3)NC2=O)c1` [Compound 2925] ({CH2CO}-[Phe(4-CONH2)]Y(Carboxymethyl)D[Phe(3-Me)]Y(Carboxymethyl)[Bip]Y(Carboxymethyl)[Orn][dL][Dab][Cha]VTC[Dab][Aun]-OH; thioether N-14), the figure is 36.6 nM; as for `Cc1cccc(C[C@@H]2NC(=O)[C@H](CC(=O)O)NC(=O)[C@H](Cc3ccc(OCC(=O)O)cc3)NC(=O)[C@H](C(C)O)NC(=O)CSC[C@@H](C(=O)N[C@@H](CCN)C(=O)NCCOCCOCC(=O)NCCCCCCCCCCCCC(=O)O)NC(=O)[C@H](CC(=O)O)NC(=O)[C@H](C(C)C)NC(=O)[C@H](CC3CCCCC3)NC(=O)[C@H](CCN)NC(=O)[C@@H](CC(C)C)NC(=O)[C@H](CCCN)NC(=O)[C@H](Cc3ccc(C(=O)O)cc3)NC(=O)[C@H](Cc3ccc(-c4ccccc4)cc3)NC(=O)[C@H](Cc3ccc(C(=O)O)cc3)NC2=O)c1` (stereo partly drawn) [Compound 3843] ({CH2CO}-[Thr(3ξ)]Y(Carboxymethyl)D[Phe(3-Me)][Phe(4-COOH)][Bip][Phe(4-COOH)][Orn][dL][Dab][Cha]VDC[Dab][AEEA]-{NH(CH2)12COOH}; thioether N-14), 40.7 nM. Take `Cc1cccc(C[C@@H]2NC(=O)[C@H](CC(=O)O)NC(=O)[C@H](Cc3ccc(OCC(=O)O)cc3)NC(=O)[C@H](Cc3ccncc3)NC(=O)CSC[C@@H](C(=O)N[C@@H](CCN)C(=O)NCCCCCCCCCCC(=O)O)NC(=O)[C@H]([C@@H](C)O)NC(=O)[C@H](C(C)C)NC(=O)[C@H](CC3CCCCC3)NC(=O)[C@H](CCN)NC(=O)[C@@H](CC(C)C)NC(=O)[C@H](CCCN)NC(=O)[C@H](Cc3ccc(O)cc3)NC(=O)[C@H](Cc3ccc(-c4ccccc4)cc3)NC(=O)[C@H](C(C)C)NC2=O)c1` [Compound 2744] ({CH2CO}-[4Pal]Y(Carboxymethyl)D[Phe(3-Me)]V[Bip]Y[Orn][dL][Dab][Cha]VTC[Dab][Aun]-OH; thioether N-14): the half-maximal inhibitory concentration (IC50) was 72.5 nM.

On to `C#CC[C@H](NC(=O)COCCOCCNC(=O)[C@H](CCCNC(=N)N)NC(=O)[C@@H]1CSCC(=O)N[C@@H](Cc2ccncc2)C(=O)N[C@@H](Cc2ccc(OCC(=O)O)cc2)C(=O)N[C@@H](CC(=O)O)C(=O)N[C@@H](Cc2c[nH]c3ccccc23)C(=O)N[C@@H](C(C)C)C(=O)N[C@@H](Cc2ccc(-c3ccccc3)cc2)C(=O)N[C@@H]([C@@H](C)CC)C(=O)N[C@@H](CCCN)C(=O)N[C@H](CC(C)C)C(=O)N[C@@H](CCN)C(=O)N[C@@H](CC(C)C)C(=O)N[C@@H](C(C)C)C(=O)N[C@@H]([C@@H](C)O)C(=O)N1)C(=O)NCCCCCCCCCCC(=O)O` [Compound 1209] ({CH2CO}-[4Pal]Y(Carboxymethyl)DWV[Bip]I[Orn][dL][Dab]LVTCR[AEEA][Pra][Aun]-OH; thioether N-14), for which the IC50 was found to be 35.2 nM.

For the origin of these results see patent publication US20260022142A1, “MACROCYCLIC IMMUNOMODULATORS” (Bristol-Myers Squibb Company, priority 2022, published 2026).
